Results from patent publication US20240034730A1, “PYRAZOLO DERIVATIVES AS HUMAN DIHYDROOROTATE DEHYDROGENASE (HDHODH) INHIBITORS FOR USE AS ANTIVIRALS” (DRUG DISCOVERY AND CLINIC S.R.L., priority 2020, published 2024).
In brackets after ≈: the same amount, converted by molar mass. Like-named read-outs stand apart in the source and are kept apart here.

Tests used:
recombinant hDHODH = recombinant hDHODH (Homo sapiens (Human), UniProt Q02127); assay: hDHODH inhibition assay (DCIP reduction); type: biochemical
[1] = pH 7.4
Protocol: (§1) Lipophilicity. The shake flask method was chosen to determinate logD7.4.
(§2) The partition coefficients between n-octanol and PBS at pH 7.4 (log D^7.4) were obtained using the shake-flask technique at room temperature. In the shake-flask experiments, 50 mM of phosphate buffered saline pH 7.4 was used as the aqueous phase. The organic (n-octanol) and aqueous phases were mutually saturated by shaking for 4 h. The compounds were solubilized in the buffered aqueous phase at the highest concentration compatible with solubility and appropriate amounts of n-octanol were added. The two phases were shaken for about 20 min, by which time the partitioning equilibrium of solutes had been reached, and then centrifuged (10000 rpm, 10 min).

[2] = Solubility assay at pH 7.4 in PBS; type: physicochemical; conditions: for Solubility in PBS: pH 7.4; for solubility at 24 h: 25 °C, pH 7.4, aqueous buffer, thermodynamic from solid
Protocol: Solubility assay at pH 7.4. […] The samples were shaken in an orbital shaker at 25° C. for 24 h. These suspensions were filtered through a PTFE 0.45 μm filter (VWR), and the solutions were chromatographically analyzed using a Perkin Elmer Ultra High Performance Liquid Chromatography (UHPLC) instrument, equipped with a reverse-phase (RP) C18 Phenomenex column (2.1×100 mm, 1.7 μm particle size). Gradient elution: the ratio of eluents A and B (0.1% trifluoroacetic acid in water and 0.1% trifluoroacetic acid in acetonitrile, respectively) changed linearly from 60% A-40% B to 0% A-100% B in 12 minutes, followed by 5 minutes in isocratic elution at 100% of eluent B and then 4 minutes in equilibration elution to reset the starting conditions. The flow rate was 0.5 mL/min. Standard injection volumes were either 2 or 4 μl for poorly soluble compounds. The detection system was a Perkin Elmer diode-array-detector. The wavelengths that were monitored for each compound were defined according to the compound's own absorption spectrum. Solubility, expressed as μM concentration of the saturated solution, was calculated via interpolation with external calibration curves that were obtained with solutions of each compound in acetonitrile.

hCoV-OC43 = assay: Focus forming reduction assay (FFRA), hCoV-OC43 in HCT-8 cells, single concentration; type: cell-based; conditions: HCT8 cells, 72 h p.i., vs DMSO control; for inhibition at 0.1 µM: Betacoronavirus 1, OC43, HCT-8, 72 h, read-out: % Decrease of hCoV-OC43 replication in presence of inhibitor 0.1 μM
[3] = log D (pH 7.4), shake-flask n-octanol/PBS; conditions: n-octanol/PBS pH 7.4, shake flask
Protocol: as §1, §2

[4] = recombinant GST-hDHODH, means ± SE of three independent experiments, read-out: hDHODH IC50 ± SE
[5] = recombinant GST-hDHODH, means ± SE of three independent experiments

Chain of recombinant hDHODH (Q02127 whole entry): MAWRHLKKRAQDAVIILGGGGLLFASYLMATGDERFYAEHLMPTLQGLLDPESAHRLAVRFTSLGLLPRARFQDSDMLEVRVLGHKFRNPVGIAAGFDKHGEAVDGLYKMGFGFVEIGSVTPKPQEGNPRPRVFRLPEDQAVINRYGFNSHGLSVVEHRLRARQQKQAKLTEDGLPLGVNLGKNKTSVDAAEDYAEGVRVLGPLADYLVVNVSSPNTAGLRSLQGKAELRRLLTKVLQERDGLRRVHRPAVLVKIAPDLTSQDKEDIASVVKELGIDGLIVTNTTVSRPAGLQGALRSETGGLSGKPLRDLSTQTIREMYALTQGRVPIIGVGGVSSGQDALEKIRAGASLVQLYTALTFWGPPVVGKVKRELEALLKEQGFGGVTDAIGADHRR

`O=C(Nc1c(F)c(F)c(-c2cccc(OCCCO)c2)c(F)c1F)c1c(O)nn2ccccc12` [Compound 42, 2-Hydroxy-N-(2,3,5,6-tetrafluoro-3′-(3-hydroxypropoxy)-[1,1′-biphenyl]-4-yl) pyrazolo[1,5-a]pyridine-3-carboxamide] gave an IC50 (recombinant hDHODH; [4]) of 3.29 ± 0.33 nM.
For `Cc1cc(Oc2ccccc2)c(C)cc1NC(=O)c1c(O)nn2ccccc12` [Compound 18], the IC50 (recombinant hDHODH; [4]) was 43 ± 5 nM.
For `Cc1cc(NC(=O)c2c(O)nn3ccccc23)c(OC(C)C)cc1Oc1ccccc1` [Compound 31, 2-Hydroxy-N-(2-isopropoxy-5-methyl-4-phenoxyphenyl)pyrazolo[1,5-a]pyridine-3-carboxamide], the IC50 (recombinant hDHODH; [4]) was 5200 ± 924 nM.
Molecule `CC(=O)COc1cccc(-c2c(F)c(F)c(NC(=O)c3c(O)nn4ccccc34)c(F)c2F)c1` [Compound 41, 2-Hydroxy-N-(2,3,5,6-tetrafluoro-3′-(2-oxopropoxy)-[1,1′-biphenyl]-4-yl) pyrazolo [1,5-a]pyridine-3-carboxamide] has an IC50 (recombinant hDHODH; [4]) of 0.82 ± 0.1 nM.
`Cc1cc(NC(=O)c2c(O)nn3ccccc23)ccc1Oc1ccccc1` [Compound 27] showed an IC50 (recombinant hDHODH; [4]) of 480 ± 31 nM.
With `O=C(Nc1c(F)c(F)c(-c2cccc(C(F)(F)F)c2)c(F)c1F)c1c(O)nn2ccccc12` [Compound 13, 2-Hydroxy-N-(2,3,5,6-tetrafluoro-3′-(trifluoromethyl)-[1,1′-biphenyl]-4-yl)pyrazolo[1,5-a]pyridine-3-carboxamide] the “Log D7.4 ± SD” value [1] was 2.69 ± 0.03, the IC50 (recombinant hDHODH; [4]) was 6.34 ± 0.63 nM and the “Solubility in PBS” value [2] was “<LOD”.
For `O=C(Nc1c(F)c(F)c(-c2ccccc2)c(F)c1F)c1c(O)nn2c(Cl)cccc12` [Compound 4, 7-Chloro-2-hydroxy-N-(2,3,5,6-tetrafluoro-[1,1′-biphenyl]-4-yl)pyrazolo[1,5-a]pyridine-3-carboxamide], the “Log D7.4 ± SD” value [1] was 2.81 ± 0.13, the IC50 (recombinant hDHODH; [4]) was 3.4 nM and the “Solubility in PBS” value [2] was “<LOD”.
With `O=C(Nc1c(F)c(F)c(-c2ccnc(C(F)(F)F)c2)c(F)c1F)c1c(O)nn2ccccc12` [Compound 9, 2-Hydroxy-N-(2,3,5,6-tetrafluoro-4-(2-(trifluoromethyl)pyridin-4-yl)phenyl)pyrazolo[1,5-a]pyridine-3-carboxamide] the “Log D7.4 ± SD” value [1] was 1.84 ± 0.06, the IC50 (recombinant hDHODH; [4]) was 150 ± 15 nM and the inhibition at 0.1 µM (hCoV-OC43) was greater than 50%.
In the case of `O=C(Nc1c(F)c(F)c(-c2cccnc2)c(F)c1F)c1c(O)nn2ccccc12` [Compound 8, 2-Hydroxy-N-(2,3,5,6-tetrafluoro-4-(pyridin-3-yl)phenyl)pyrazolo[1,5-a]pyridine-3-carboxamide], the “Log D7.4 ± SD” value [1] is reported as 0.98 ± 0.03 and the IC50 (recombinant hDHODH; [4]) is reported as 6.23 nM.
In the case of `CCC(C)Oc1cc(Oc2ccccc2)c(C)cc1NC(=O)c1c(O)nn2ccccc12` (stereo not drawn) [Compound 33, N-(2-(Sec-butoxy)-5-methyl-4-phenoxyphenyl)-2-hydroxypyrazolo[1,5-a]pyridine-3-carboxamide], the IC50 (recombinant hDHODH; [4]) is reported as 3940 ± 797 nM.
In the case of `Oc1nn2ccccc2c1/N=N/c1c(F)c(F)c(-c2ccccc2)c(F)c1F` [Compound 25], the IC50 (recombinant hDHODH; [4]) is reported as 13 nM and the “% Decrease of hCoV-OC43 replication in presence of inhibitor 0.1 μM” value (hCoV-OC43) is reported as 18.70%.
For `O=C(Nc1c(F)c(F)c(-c2cccc(F)c2)c(F)c1F)c1c(O)nn2ccccc12` [Compound 11, 2-Hydroxy-N-(2,3,3′,5,6-pentafluoro-[1,1′-biphenyl]-4-yl)pyrazolo[1,5-a]pyridine-3-carboxamide], the “Log D7.4 ± SD” value [1] was 2.09 ± 0.04, the IC50 (recombinant hDHODH; [4]) was 2.03 nM and the “Solubility in PBS” value [2] was “<LOD”.
With `Cc1cc(Oc2ccccc2)c(C(C)C)cc1NC(=O)c1c(O)nn2ccccc12` [Compound 30, 2-Hydroxy-N-(5-isopropyl-2-methyl-4-phenoxyphenyl)pyrazolo[1,5-a]pyridine-3-carboxamide] the solubility at 24 h [2] was 0.98 ± 0.23 µM (≈ 0.393 µg/mL) and the “Log D7.4 ± SD” value [3] was 2.91 ± 0.07.
In the case of `O=C(Nc1ccc2[nH]ccc2c1)c1c(O)nn2ccccc12` [Compound 19, 2-Hydroxy-N-(1H-indol-5-yl)pyrazolo[1,5-a]pyridine-3-carboxamide], the IC50 (recombinant hDHODH; [4]) is reported as greater than 10000 nM and the “Log D7.4 ± SD” value [3] is reported as 0.45 ± 0.02.
Work on `O=C(Nc1c(F)c(F)c(-c2cccs2)c(F)c1F)c1c(O)nn2ccccc12` [Compound 7, 2-Hydroxy-N-(2,3,5,6-tetrafluoro-4-(thiophen-2-yl)phenyl)pyrazolo[1,5-a]pyridine-3-carboxamide] yielded an IC50 (recombinant hDHODH; [4]) of 1.35 ± 0.45 nM.
With `Oc1nn2ccccc2c1-c1nnc(-c2c(F)c(F)c(-c3ccccc3)c(F)c2F)o1` [Compound 39, 3-(5-(2,3,5,6-Tetrafluoro-[1,1′-biphenyl]-4-yl)-1,3,4-oxadiazol-2-yl) pyrazolo [1,5-a]pyridine-2-ol] the “hDHODH IC50 ± SE” value (recombinant hDHODH; [5]) was “Inactive at 1 microM”.
Molecule `Cc1cc(NC(=O)c2c(O)nn3ccccc23)c(C(C)C)cc1Oc1ccc(C(F)(F)F)cc1` [Compound 37, 2-Hydroxy-N-(2-isopropyl-5-methyl-4-(4-(trifluoromethyl)phenoxy)phenyl)pyrazolo[1,5-a]pyridine-3-carboxamide] has a solubility at 24 h [2] of 1.23 ± 0.09 µM (≈ 0.577 µg/mL) and an inhibition at 0.1 µM (hCoV-OC43) of 36.1%.
In the case of `Cc1cc(NC(=O)c2c(O)nn3ccccc23)c(C(C)C)cc1Oc1ccncc1` [Compound 36, 2-Hydroxy-N-(2-isopropyl-5-methyl-4-(pyridin-4-yloxy)phenyl)pyrazolo[1,5-a]pyridine-3-carboxamide], the solubility at 24 h [2] is reported as 111.1 ± 0.35 µM (≈ 44.7 µg/mL) and the “Log D7.4 ± SD” value [3] is reported as 2.51 ± 0.07.
`O=C(Nc1ccc(Oc2ccccc2)cn1)c1c(O)nn2ccccc12` [Compound 23, 2-Hydroxy-N-(5-phenoxypiridin-2-yl)pyrazolo[1,5-a]pyridine-3-carboxamide] gave an IC50 (recombinant hDHODH; [4]) of 12000 ± 1000 nM.
`COc1cccc(-c2c(F)c(F)c(NC(=O)c3c(O)nn4ccccc34)c(F)c2F)c1` [Compound 16, 2-Hydroxy-N-(2,3,5,6-tetrafluoro-3′-methoxy-[1,1′-biphenyl]-4-yl)pyrazolo[1,5-a]pyridine-3-carboxamide] gave an IC50 (recombinant hDHODH; [4]) of 2.75 ± 0.31 nM.
Molecule `O=C(Nc1ccc(Oc2cccc(C(F)(F)F)c2)cn1)c1c(O)nn2ccccc12` [Compound 24, 2-Hydroxy-N-5-[3-(trifluoromethyl)phenoxy]piridin-2-ylpyrazolo[1,5-a]pyridine-3-carboxamide] has an IC50 (recombinant hDHODH; [4]) greater than 10000 nM.
Work on `Cc1cc(NC(=O)c2c(O)nn3ccccc23)c(OC2CCC2)cc1Oc1ccccc1` [Compound 32, N-(2-cyclobutoxy-5-methyl-4-phenoxyphenyl)-2-hydroxypyrazolo[1,5-a]pyridine-3-carboxamide] yielded an IC50 (recombinant hDHODH; [4]) greater than 10000 nM.
In the case of `O=C(Nc1c(F)c(F)c(-c2cccc(O)c2)c(F)c1F)c1c(O)nn2ccccc12` [Compound 14, 2-Hydroxy-N-(2,3,5,6-tetrafluoro-3′-hydroxy-[1,1′-biphenyl]-4-yl)pyrazolo[1,5-a]pyridine-3-carboxamide], the “Log D7.4 ± SD” value [1] is reported as 1.82 ± 0.09, the IC50 (recombinant hDHODH; [4]) is reported as 2.78 ± 0.32 nM and the solubility at 24 h [2] is reported as 55 µM (≈ 23 µg/mL).
In the case of `Cc1cc(NC(=O)c2c(O)nn3ccccc23)c(C(C)C)cc1Oc1ccccc1` [Compound 29, 2-Hydroxy-N-(2-isopropyl-5-methyl-4-phenoxyphenyl)pyrazolo[1,5-a]pyridine-3-carboxamide], the solubility at 24 h [2] is reported as 1.2 ± 0.28 µM (≈ 0.482 µg/mL) and the “Log D7.4 ± SD” value [3] is reported as 3.18 ± 0.09.
In the case of `O=C(Nc1c(F)c(F)c(-c2ccc(C(F)(F)F)cc2)c(F)c1F)c1c(O)nn2ccccc12` [Compound 12, 2-Hydroxy-N-(2,3,5,6-tetrafluoro-4′-(trifluoromethyl)-[1,1′-biphenyl]-4-yl)pyrazolo[1,5-a]pyridine-3-carboxamide], the “Log D7.4 ± SD” value [1] is reported as “Insoluble”, the IC50 (recombinant hDHODH; [4]) is reported as 71.8 nM and the “Solubility in PBS” value [2] is reported as “<LOD”.
For `CC(O)COc1cccc(-c2c(F)c(F)c(NC(=O)c3c(O)nn4ccccc34)c(F)c2F)c1` (stereo not drawn) [Compound 43, 2-Hydroxy-N-(2,3,5,6-tetrafluoro-3′-(2-hydroxypropoxy)-[1,1′-biphenyl]-4-yl) pyrazolo[1,5-a]pyridine-3-carboxamide], the IC50 (recombinant hDHODH; [4]) was 2.5 ± 0.2 nM.
For `Oc1nn2ccccc2c1/N=N/c1ccc(Oc2ccccc2)cc1` [Compound 38, (E)-3-((4-phenoxyphenyl)diazinyl)pyrazolo[1,5-a]pyridin-2-ol], the “hDHODH IC50 ± SE” value (recombinant hDHODH; [5]) was “Inactive at 1 microM”.
Molecule `CCC(CC)Oc1cc(Oc2ccccc2)c(C)cc1NC(=O)c1c(O)nn2ccccc12` [Compound 35, 2-Hydroxy-N-(5-methyl-2-(pentan-3-yloxy)-4-phenoxyphenyl)pyrazolo[1,5-a]pyridine-3-carboxamide] has an IC50 (recombinant hDHODH) of 6980 ± 1010 nM.
Molecule `CCCC(C)Oc1cc(Oc2ccccc2)c(C)cc1NC(=O)c1c(O)nn2ccccc12` (stereo not drawn) [Compound 34, 2-Hydroxy-N-(5-methyl-2-(pentan-2-yloxy)-4-phenoxyphenyl) pyrazolo[1,5-a]pyridine-3-carboxamide] has an IC50 (recombinant hDHODH; [4]) of 2210 ± 346 nM.
In the case of `O=C(Nc1c(F)c(F)c(-c2ccc(F)cc2)c(F)c1F)c1c(O)nn2ccccc12` [Compound 10, 2-Hydroxy-N-(2,3,4′,5,6-pentafluoro-[1,1′-biphenyl]-4-yl)pyrazolo[1,5-a]pyridine-3-carboxamide], the “Log D7.4 ± SD” value [1] is reported as “Insoluble”, the IC50 (recombinant hDHODH; [4]) is reported as 17.7 nM and the “Solubility in PBS” value [2] is reported as “<LOD”.
`Cc1cccc2c(C(=O)Nc3c(F)c(F)c(-c4ccccc4)c(F)c3F)c(O)nn12` [Compound 2] gave an IC50 (recombinant hDHODH; [4]) of 4.3 nM.
For `Cc1cc(Sc2ccncc2)c(C)cc1NC(=O)c1c(O)nn2ccccc12` [Compound 26, 2-Hydroxy-N-(2,5-dimethyl-4-(pyridin-4-ylthio)phenyl) pyrazolo[1,5-a]pyridine-3-carboxamide], the IC50 (recombinant hDHODH; [4]) was 2210 ± 366 nM and the “Log D7.4 ± SD” value [3] was 1.76 ± 0.07.
In the case of `O=C(Nc1c(F)c(F)c(-c2cccc(OC(F)(F)F)c2)c(F)c1F)c1c(O)nn2ccccc12` [Compound 15, 2-Hydroxy-N-(2,3,5,6-tetrafluoro-3′-(trifluoromethoxy)-[1,1′-biphenyl]-4-yl)pyrazolo[1,5-a]pyridine-3-carboxamide], the “Log D7.4 ± SD” value [1] is reported as 3.27 ± 0.19, the IC50 (recombinant hDHODH; [4]) is reported as 2.3 ± 0.33 nM and the inhibition at 0.1 µM (hCoV-OC43) is reported as 93.6%.
With `O=C(Nc1c(F)c(F)c(N2CCOCC2)c(F)c1F)c1c(O)nn2ccccc12` [Compound 6, 2-Hydroxy-N-(2,3,5,6-tetrafluoro-4-morpholinophenyl)pyrazolo[1,5-a]pyridine-3-carboxamide] the “Log D7.4 ± SD” value [1] was 0.66 ± 0.08, the IC50 (recombinant hDHODH; [4]) was 90.9 nM and the solubility at 24 h [2] was 438 µM (≈ 180 µg/mL).
